{
  "source": "paper PMC2941766",
  "about": "(Molecular pharmaceutics, 2010)",
  "format_in_all_cases": "in vitro ADME",
  "key": {"[1]": {"target": "T1, UGT1A10 (Homo sapiens, UniProt Q9HAW8)", "T1 sequence (Q9HAW8 26-530)": "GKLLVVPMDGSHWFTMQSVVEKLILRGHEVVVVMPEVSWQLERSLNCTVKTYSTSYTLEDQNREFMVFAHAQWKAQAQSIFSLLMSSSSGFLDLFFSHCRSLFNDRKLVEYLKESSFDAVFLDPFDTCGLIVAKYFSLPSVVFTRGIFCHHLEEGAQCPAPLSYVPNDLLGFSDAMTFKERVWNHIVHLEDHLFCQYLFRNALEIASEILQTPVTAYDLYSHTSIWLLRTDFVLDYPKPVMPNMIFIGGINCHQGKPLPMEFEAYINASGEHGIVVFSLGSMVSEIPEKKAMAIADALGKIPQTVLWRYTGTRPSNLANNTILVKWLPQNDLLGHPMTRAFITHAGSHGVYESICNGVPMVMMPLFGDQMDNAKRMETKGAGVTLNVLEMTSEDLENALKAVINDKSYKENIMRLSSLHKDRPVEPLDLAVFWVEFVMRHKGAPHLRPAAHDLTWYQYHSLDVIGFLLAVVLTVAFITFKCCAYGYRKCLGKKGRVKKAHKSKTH", "experiment": "Glucuronidation by expressed human UGT1A10", "conditions": "UGT1A10, 10 μM substrate, 37°C"}, "[2]": {"target": "T2, UGT1A9 (Homo sapiens, UniProt O60656)", "T2 sequence (O60656 26-530)": "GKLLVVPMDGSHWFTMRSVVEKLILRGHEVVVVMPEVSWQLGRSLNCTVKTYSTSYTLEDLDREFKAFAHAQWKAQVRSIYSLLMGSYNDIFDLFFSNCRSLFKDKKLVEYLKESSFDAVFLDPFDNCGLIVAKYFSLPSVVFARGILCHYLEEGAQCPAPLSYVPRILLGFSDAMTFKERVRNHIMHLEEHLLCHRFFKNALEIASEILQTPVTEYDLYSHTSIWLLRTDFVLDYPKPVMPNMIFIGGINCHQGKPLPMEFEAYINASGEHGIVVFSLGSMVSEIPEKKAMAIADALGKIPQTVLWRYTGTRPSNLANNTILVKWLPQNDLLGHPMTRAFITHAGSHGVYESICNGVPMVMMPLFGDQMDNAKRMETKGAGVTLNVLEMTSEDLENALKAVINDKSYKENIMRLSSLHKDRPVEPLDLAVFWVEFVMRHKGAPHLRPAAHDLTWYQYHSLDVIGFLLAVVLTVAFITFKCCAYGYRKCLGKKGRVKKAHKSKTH", "experiment": "Glucuronidation by expressed human UGT1A9", "conditions": "UGT1A9, 2.5 μM substrate, 37°C"}, "[3]": {"target": "T3, UGT1A7 (Homo sapiens, UniProt Q9HAW7)", "T3 sequence (Q9HAW7 26-530)": "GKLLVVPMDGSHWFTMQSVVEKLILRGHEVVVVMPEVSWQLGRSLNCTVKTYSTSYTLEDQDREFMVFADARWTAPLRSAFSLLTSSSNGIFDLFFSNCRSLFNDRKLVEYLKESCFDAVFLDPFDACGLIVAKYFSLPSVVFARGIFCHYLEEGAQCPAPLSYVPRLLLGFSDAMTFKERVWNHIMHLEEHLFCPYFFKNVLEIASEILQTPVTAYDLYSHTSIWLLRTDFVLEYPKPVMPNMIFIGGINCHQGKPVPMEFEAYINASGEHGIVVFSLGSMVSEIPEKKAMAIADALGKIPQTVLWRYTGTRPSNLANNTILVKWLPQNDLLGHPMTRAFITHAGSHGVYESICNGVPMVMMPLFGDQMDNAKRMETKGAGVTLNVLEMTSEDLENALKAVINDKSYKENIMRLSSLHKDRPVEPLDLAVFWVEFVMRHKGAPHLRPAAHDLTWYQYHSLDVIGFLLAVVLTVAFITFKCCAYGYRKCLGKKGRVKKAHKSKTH", "experiment": "Glucuronidation by expressed human UGT1A7", "conditions": "UGT1A7, 2.5μM substrate, 37°C"}, "[4]": {"target": "T4, UGT1A8 (Homo sapiens, UniProt Q9HAW9)", "T4 sequence (Q9HAW9 26-530)": "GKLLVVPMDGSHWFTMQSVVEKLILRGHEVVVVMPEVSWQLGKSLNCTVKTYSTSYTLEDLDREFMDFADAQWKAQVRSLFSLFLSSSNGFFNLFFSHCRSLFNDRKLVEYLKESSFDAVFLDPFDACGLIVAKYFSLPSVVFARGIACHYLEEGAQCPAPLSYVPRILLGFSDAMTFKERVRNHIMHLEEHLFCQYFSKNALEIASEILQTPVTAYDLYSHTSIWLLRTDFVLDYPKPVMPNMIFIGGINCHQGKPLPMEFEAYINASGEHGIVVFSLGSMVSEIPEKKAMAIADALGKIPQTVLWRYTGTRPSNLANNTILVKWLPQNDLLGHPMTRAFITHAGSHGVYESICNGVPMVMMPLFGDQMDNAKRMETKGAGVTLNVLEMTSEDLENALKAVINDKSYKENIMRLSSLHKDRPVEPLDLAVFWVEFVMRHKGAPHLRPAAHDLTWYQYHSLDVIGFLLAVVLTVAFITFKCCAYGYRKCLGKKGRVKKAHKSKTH", "experiment": "Glucuronidation by expressed human UGT1A8", "conditions": "UGT1A8, 2.5μM substrate, 37°C"}, "[5]": {"target": "T5, UGT2B7 (Homo sapiens, UniProt P16662)", "T5 sequence (P16662 24-529)": "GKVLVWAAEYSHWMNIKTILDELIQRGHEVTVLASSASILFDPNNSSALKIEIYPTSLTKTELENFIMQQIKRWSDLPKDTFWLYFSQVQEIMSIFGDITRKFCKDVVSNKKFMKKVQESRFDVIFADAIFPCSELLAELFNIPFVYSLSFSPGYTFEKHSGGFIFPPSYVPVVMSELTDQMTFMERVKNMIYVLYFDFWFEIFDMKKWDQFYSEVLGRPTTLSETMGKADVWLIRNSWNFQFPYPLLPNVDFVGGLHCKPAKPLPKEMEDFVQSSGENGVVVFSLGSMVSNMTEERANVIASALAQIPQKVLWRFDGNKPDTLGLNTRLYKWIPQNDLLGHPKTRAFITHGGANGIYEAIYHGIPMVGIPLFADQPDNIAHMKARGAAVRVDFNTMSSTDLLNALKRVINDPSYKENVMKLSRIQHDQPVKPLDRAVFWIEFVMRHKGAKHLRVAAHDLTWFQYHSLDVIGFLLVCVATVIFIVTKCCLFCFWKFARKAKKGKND", "experiment": "Glucuronidation by expressed human UGT2B7", "conditions": "for glucuronidation rate: 37°C"}, "[6]": {"target": "T6, UGT1A1 (Homo sapiens, UniProt P22309)", "T6 sequence (P22309 26-533)": "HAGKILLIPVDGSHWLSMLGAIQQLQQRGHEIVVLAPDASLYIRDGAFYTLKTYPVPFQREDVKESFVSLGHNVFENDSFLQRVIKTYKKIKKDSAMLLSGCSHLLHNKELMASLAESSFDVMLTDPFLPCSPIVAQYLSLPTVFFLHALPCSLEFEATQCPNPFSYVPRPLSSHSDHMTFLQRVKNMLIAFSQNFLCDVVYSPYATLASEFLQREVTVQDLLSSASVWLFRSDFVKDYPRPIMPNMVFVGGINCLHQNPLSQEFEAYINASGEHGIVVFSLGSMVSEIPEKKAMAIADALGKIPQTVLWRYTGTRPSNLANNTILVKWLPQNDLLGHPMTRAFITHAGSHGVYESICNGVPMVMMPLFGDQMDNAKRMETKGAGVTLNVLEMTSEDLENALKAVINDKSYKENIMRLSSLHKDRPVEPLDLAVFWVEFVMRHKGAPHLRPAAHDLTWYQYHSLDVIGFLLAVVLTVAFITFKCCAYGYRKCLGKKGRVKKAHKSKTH", "experiment": "Glucuronidation by expressed human UGT1A1", "conditions": "37°C"}, "[7]": {"experiment": "Glucuronidation by pooled human liver microsomes", "conditions": "human liver microsomes, 2.5μM substrate"}, "[8]": {"experiment": "Glucuronidation by pooled human intestinal microsomes", "conditions": "human intestinal microsomes"}},
  "data": [
    {"molecule": "O=c1c(O)c(-c2ccccc2)oc2ccccc12", "note": "[3-HF, 3-hydroxyflavone]", "values": [
      {"measurement": "glucuronidation rate", "setting": "[1]", "value": "1.37±0.19 nmol per min per mg of protein"},
      {"measurement": "glucuronidation rate", "setting": "[2]", "value": "3.03±0.04 nmol per min per mg of protein"},
      {"measurement": "glucuronidation rate", "setting": "[3]", "value": "8.27±0.15 nmol per min per mg of protein"},
      {"measurement": "glucuronidation rate", "setting": "[4]", "value": "2.19 ± 0.27 nmol per min per mg of protein"},
      {"measurement": "glucuronidation rate", "setting": "[5]; UGT2B7, 2.5μM substrate", "value": "1.39±0.14 nmol per min per mg of protein"},
      {"measurement": "glucuronidation rate", "setting": "[5]; UGT2B7, 10μM substrate", "value": "5.35±0.91 nmol per min per mg of protein"},
      {"measurement": "glucuronidation rate", "setting": "[5]; UGT2B7, 35μM substrate", "value": "2.19±0.07 nmol per min per mg of protein"},
      {"measurement": "substrate of UGT2B7", "setting": "[5]; UGT2B7, conclusion from fingerprints", "value": "substrates"},
      {"measurement": "glucuronidation rate", "setting": "[6]; UGT1A1, 2.5μM substrate", "value": "2.68 ± 0.47 nmol per min per mg of protein"},
      {"measurement": "glucuronidation rate", "setting": "[6]; UGT1A1, 10μM substrate", "value": "3.80±0.21 nmol per min per mg of protein"},
      {"measurement": "glucuronidation rate", "setting": "[6]; UGT1A1, 35μM substrate", "value": "3.85±0.12 nmol per min per mg of protein"},
      {"measurement": "glucuronidation rate", "setting": "[7]", "value": "5.04±0.48 nmol per min per mg of protein"},
      {"measurement": "glucuronidation rate", "setting": "[8]; 2.5 μM substrate", "value": "12.35±1.32 nmol per min per mg of protein"},
      {"measurement": "magnitude of the difference between fastest and slowest glucuronidation rate", "setting": "[8]; 2.5 μM, 3-HF vs 5-HF", "value": 25, "unit": "folds"}
    ]}
  ]
}
